A short description of data set [1]: Serum clearance in intra-abdominal infection patient at 100 mg followed by 50 mg every 12 hrs for 5 to 14 days. The note with it: human. It is filed as ADME, organism-based.
Data set [2] is described as follows: AUC in intra-abdominal infection patient at 100 mg followed by 50 mg every 12 hrs for 5 to 14 days. It counts as ADME, organism-based. The note with it: human, plasma.
Data set [3] has as its system Enterobacteriaceae. The data set is described as follows: Antibacterial activity against Enterobacteriaceae isolate obtained from intra-abdominal infection patient. It is filed as functional.
Data set [4] is described as follows: Ratio of AUC in intra-abdominal infection patient at 100 mg followed by 50 mg every 12 hrs for 5 to 14 days to MIC for Enterobacteriaceae isolate. It is filed as functional.

In brackets after ≈: the same amount, converted by molar mass.

Consider one molecule from ChEMBL document CHEMBL1255393, “Impact of different factors on the probability of clinical response in tigecycline-treated patients with intra-abdominal infections” (Antimicrob Agents Chemother, 2010).

In data set [1], `CN(C)c1cc(NC(=O)CNC(C)(C)C)c(O)c2c1C[C@H]1C[C@H]3[C@H](N(C)C)C(O)=C(C(N)=O)C(=O)[C@@]3(O)C(O)=C1C2=O` [TIGECYCLINE] had a clearance of 268 mL/min. The molecule further came in with an AUC in data set [2] of 6190 ng·h/mL. In data set [3], the MIC50 came out at 0.25 µg/mL (≈ 0.427 µM) and the MIC90 stood at 1 µg/mL (≈ 1.71 µM). In data set [4], the Ratio is 21.8.

A word on the clearance: it is a measure of how efficiently the substance is removed, as volume per time. By AUC is commonly meant the area under the concentration-time curve, a measure of exposure. The low end stands for less exposure, the high end for more exposure. What is called MIC50 is an inhibitory concentration at the 50% level, which refers to growth in some studies and to a panel of isolates in others. By MIC90 is commonly meant the lowest concentration that inhibits either 90% of growth or 90% of the strains tested, depending on the study. A higher MIC90 goes with weaker potency.
